Measurements from the supplement of paper PMC10307832.

Experiments:
Assay in all cases: relative viability (nuclei count vs DMSO), 5 days (fraction); higher = more cells survive
[1] = tested on: EPLC-272H
In short: (§1)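 Medians of duplicate plates are given as relative viability. That measure is the nuclei count in treated wells divided by the count in vehicle wells. Counts were taken on 4× images of lung cancer cell lines in 1536-well plates, 5 days after pin-tool dosing the day after seeding with one drug alone or a fixed anchor-drug dose plus five library-drug doses (not always all listed) in √10 steps.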

[2] = tested on: HARA
In short: as §1

[3] = tested on: COR-L 105
In short: as §1

[4] = tested on: ChaGo-K-1
In short: as §1

[5] = tested on: NCI-H1792
In short: as §1

[6] = tested on: NCI-H1734
In short: as §1

[7] = tested on: EKVX
In short: as §1

[8] = tested on: NCI-H647
In short: as §1

[9] = tested on: NCI-H2405
In short: as §1

[10] = tested on: RERF-LC-KJ
In short: as §1

[11] = tested on: NCI-H1993
In short: as §1

## Cc1cn(-c2cc(NC(=O)c3ccc(C)c(Nc4nccc(-c5cccnc5)n4)c3)cc(C(F)(F)F)c2)cn1 [Nilotinib] + CC(=O)c1c(C)c2cnc(Nc3ccc(N4CCNCC4)cn3)nc2n(C2CCCC2)c1=O [Palbociclib] (partner 0.5 µM)
[1]; first compound 0.001 µM
  relative viability: 0.348
[1]; first compound 0.003162 µM
  relative viability: 0.345
[1]; first compound 0.03162 µM
  relative viability: 0.291
[1]; first compound 0.1 µM
  relative viability: 0.39
[2]; first compound 0.001 µM
  relative viability: 0.287
[2]; first compound 0.003162 µM
  relative viability: 0.219
[2]; first compound 0.01 µM
  relative viability: 0.246
[2]; first compound 0.03162 µM
  relative viability: 0.251
[2]; first compound 0.1 µM
  relative viability: 0.225
[3]; first compound 0.001 µM
  relative viability: 0.396
[3]; first compound 0.003162 µM
  relative viability: 0.413
[3]; first compound 0.01 µM
  relative viability: 0.28
[3]; first compound 0.03162 µM
  relative viability: 0.399
[3]; first compound 0.1 µM
  relative viability: 0.391
[4]; first compound 0.001 µM
  relative viability: 0.898
[4]; first compound 0.003162 µM
  relative viability: 1.25
[4]; first compound 0.01 µM
  relative viability: 1.06
[4]; first compound 0.03162 µM
  relative viability: 0.873
[4]; first compound 0.1 µM
  relative viability: 0.894
[5]; first compound 0.001 µM
  relative viability: 0.582
[5]; first compound 0.003162 µM
  relative viability: 0.684
[5]; first compound 0.01 µM
  relative viability: 0.732
[5]; first compound 0.1 µM
  relative viability: 0.89
[6]; first compound 0.001 µM
  relative viability: 0.333
[6]; first compound 0.003162 µM
  relative viability: 0.36
[6]; first compound 0.01 µM
  relative viability: 0.372
[6]; first compound 0.03162 µM
  relative viability: 0.312
[6]; first compound 0.1 µM
  relative viability: 0.317
[7]; first compound 0.001 µM
  relative viability: 0.372
[7]; first compound 0.003162 µM
  relative viability: 0.492
[7]; first compound 0.01 µM
  relative viability: 0.479
[7]; first compound 0.03162 µM
  relative viability: 0.379
[7]; first compound 0.1 µM
  relative viability: 0.62
[8]; first compound 0.001 µM
  relative viability: 0.384
[8]; first compound 0.003162 µM
  relative viability: 0.382
[8]; first compound 0.01 µM
  relative viability: 0.468
[8]; first compound 0.03162 µM
  relative viability: 0.266
[8]; first compound 0.1 µM
  relative viability: 0.26
[9]; first compound 0.001 µM
  relative viability: 0.493
[9]; first compound 0.003162 µM
  relative viability: 0.485
[9]; first compound 0.01 µM
  relative viability: 0.529
[9]; first compound 0.03162 µM
  relative viability: 0.467
[9]; first compound 0.1 µM
  relative viability: 0.404
[10]; first compound 0.001 µM
  relative viability: 0.965
[10]; first compound 0.003162 µM
  relative viability: 1.11
[10]; first compound 0.01 µM
  relative viability: 1.21
[10]; first compound 0.03162 µM
  relative viability: 0.896
[10]; first compound 0.1 µM
  relative viability: 1.03
[11]; first compound 0.001 µM
  relative viability: 0.688
[11]; first compound 0.003162 µM
  relative viability: 0.705
[11]; first compound 0.01 µM
  relative viability: 0.762
